Source: patent US20120157433A1, “Heteroaryl Compounds as Kinase Inhibitors” (priority 2009, published 2012)

Biological target: Cdk9/cyclinT1 (Homo sapiens, UniProt P50750)
Test: Cdk9/cyclinT1 kinase assay (IMAP or Alpha Screen protocol)
Conditions: not given

Cdk9/cyclinT1, sequence (P50750 whole entry): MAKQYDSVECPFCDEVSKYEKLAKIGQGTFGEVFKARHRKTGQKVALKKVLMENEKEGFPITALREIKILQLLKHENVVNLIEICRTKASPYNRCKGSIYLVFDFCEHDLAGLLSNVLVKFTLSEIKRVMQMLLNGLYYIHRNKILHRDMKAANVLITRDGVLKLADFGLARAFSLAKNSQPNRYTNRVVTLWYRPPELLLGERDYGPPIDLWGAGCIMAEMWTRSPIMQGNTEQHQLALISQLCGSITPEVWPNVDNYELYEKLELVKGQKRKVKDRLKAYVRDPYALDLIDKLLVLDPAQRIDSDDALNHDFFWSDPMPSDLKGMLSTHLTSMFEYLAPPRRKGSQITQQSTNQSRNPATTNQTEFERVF
Cdk9/cyclinT1, sequence (O60563 whole entry partner): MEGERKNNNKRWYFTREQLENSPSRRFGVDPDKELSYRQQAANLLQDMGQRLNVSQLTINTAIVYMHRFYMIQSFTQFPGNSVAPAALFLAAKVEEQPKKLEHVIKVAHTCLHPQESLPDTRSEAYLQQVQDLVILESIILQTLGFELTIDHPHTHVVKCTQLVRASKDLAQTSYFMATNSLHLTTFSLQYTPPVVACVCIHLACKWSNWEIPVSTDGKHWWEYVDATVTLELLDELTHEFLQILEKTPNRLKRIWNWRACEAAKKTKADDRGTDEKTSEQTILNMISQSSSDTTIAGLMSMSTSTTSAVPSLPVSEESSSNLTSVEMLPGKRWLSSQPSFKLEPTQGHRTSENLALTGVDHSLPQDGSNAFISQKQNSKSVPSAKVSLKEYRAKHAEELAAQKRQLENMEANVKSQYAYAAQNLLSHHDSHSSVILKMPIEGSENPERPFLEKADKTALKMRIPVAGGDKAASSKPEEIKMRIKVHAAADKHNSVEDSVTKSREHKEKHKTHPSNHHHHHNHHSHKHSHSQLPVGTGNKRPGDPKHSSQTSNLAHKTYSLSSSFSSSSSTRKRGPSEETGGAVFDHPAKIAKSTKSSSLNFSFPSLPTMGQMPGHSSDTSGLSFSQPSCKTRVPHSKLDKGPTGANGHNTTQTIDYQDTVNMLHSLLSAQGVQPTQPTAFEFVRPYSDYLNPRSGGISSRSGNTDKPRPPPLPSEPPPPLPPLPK

IC50 [nM]	SMILES
10	O=C(Nc1cc(-c2cccc(F)c2)c(Cl)cn1)[C@@H]1CCCNC1 [Example 2, (R)-Piperidine-3-carboxylic acid [5-chloro-4-(3-fluoro-phenyl)-pyridin-2-yl]-amide]
< 8	COc1ccc(F)cc1-c1cc(NC(=O)[C@@H]2CCCNC2)ncc1Cl [Example 4, (R)—N-(5-Chloro-4-(5-fluoro-2-methoxyphenyl)pyridin-2-yl)piperidine-3-carboxamide]
2	CC(C)Oc1ccc(F)cc1-c1cc(NC(=O)[C@@H]2CCCNC2)ncc1Cl [Example 5, (R)-Piperidine-3-carboxylic acid [5-chloro-4-(5-fluoro-2-isopropoxy-phenyl)-pyridin-2-yl]-amide]
< 8	O=C(Nc1cc(-c2cc(F)cc(NCC3CCOCC3)c2)c(Cl)cn1)[C@@H]1CCCNC1 [Example 9, (R)—N-(5-Chloro-4-(3-fluoro-5-(((tetrahydro-2H-pyran-4-yl)-methyl)amino)phenyl)-pyridin-2-yl)piperidine-3-carboxamide]
< 8	O=C(Nc1cc(-c2ccc(Cl)c(NCC3CCOCC3)c2)c(Cl)cn1)[C@@H]1CCCNC1 [Example 13, (R)—N-(5-Chloro-4-(4-chloro-3-(((tetrahydro-2H-pyran-4-yl)methyl)amino)phenyl)-pyridin-2-yl)piperidine-3-carboxamide]

Further lines, the molecule ahead of its results:

SMILES	IC50 [nM]
O=C(Nc1cc(-c2ccccc2)c(Cl)cn1)[C@@H]1CCCNC1 [Example 1, (R)—N-(5-chloro-4-phenylpyridin-2-yl)piperidine-3-carboxamide]	20
COc1ccccc1-c1cc(NC(=O)[C@@H]2CCCNC2)ncc1Cl [Example 3, (R)-Piperidine-3-carboxylic acid [5-chloro-4-(2-methoxy-phenyl)-pyridin-2-yl]-amide]	< 8
O=C(Nc1cc(-c2cccc(OCc3cccc(F)c3)c2)c(Cl)cn1)[C@@H]1CCCNC1 [Example 6, (R)-Piperidine-3-carboxylic acid {5-chloro-4-[3-(3-fluoro-benzyloxy)-phenyl]-pyridin-2-yl}-amide]	< 8
O=C(Nc1cc(-c2cccc(NCC3CCOCC3)c2)c(Cl)cn1)[C@@H]1CCCNC1 [Example 7, (R)—N-(5-chloro-4-(3-(((tetrahydro-2H-pyran-4-yl)methyl)amino)phenyl)pyridin-2-yl)piperidine-3-carboxamide]	< 8
O=C(Nc1cc(-c2cccc(NCC3CCOCC3)c2)c(Cl)cn1)[C@H]1CCCNC1 [Example 8, (S)-Piperidine-3-carboxylic acid (5-chloro-4-{3-[(tetrahydro-pyran-4-ylmethyl)-amino]-phenyl}-pyridin-2-yl)-amide]	23
CC(C)(C)OC(=O)N1CCC[C@@H](C(=O)Nc2cc(-c3cc(F)cc(NCC4CCOCC4)c3)c(Cl)cn2)C1 [Example 10, (R)-3-(5-Chloro-4-{3-fluoro-5-[(tetrahydro-pyran-4-ylmethyl)-amino]-phenyl}-pyridin-2-ylcarbamoyl)-piperidine-1-carboxylic acid tert-butyl ester]	11
O=C(Nc1cc(-c2cc(F)cc(NCC3CCOCC3)c2)c(Cl)cn1)[C@H]1CCCNC1 [Example 11, (S)-Piperidine-3-carboxylic acid (5-chloro-4-{3-fluoro-5-[(tetrahydro-pyran-4-ylmethyl)-amino]-phenyl}-pyridin-2-yl)-amide]	11
O=C(Nc1cc(-c2cc(NCC3CCOCC3)ccc2F)c(Cl)cn1)[C@@H]1CCCNC1 [Example 12, (R)-Piperidine-3-carboxylic acid (5-chloro-4-{2-fluoro-5-[(tetrahydro-pyran-4-ylmethyl)-amino]-phenyl}-pyridin-2-yl)-amide]	< 8
O=C(Nc1cc(-c2cc(F)cc(NCC3CCOCC3)c2)c(Cl)cn1)C1CNCCO1 (stereo not shown) [Example 14, Morpholine-2-carboxylic acid (5-chloro-4-{3-fluoro-5-[(tetrahydro-pyran-4-ylmethyl)-amino]-phenyl}-pyridin-2-yl)-amide]	< 8
O=C(Nc1cc(-c2cc(NCC3CCOCC3)ccc2F)c(Cl)cn1)[C@H]1CNCCO1 [Example 15, (R)-Morpholine-2-carboxylic acid (5-chloro-4-{2-fluoro-5-[(tetrahydro-pyran-4-ylmethyl)-amino]-phenyl}-pyridin-2-yl)-amide]	16

Test system: neointima formation
Test: not given
Conditions: rats; cited from earlier work

SMILES	inhibition of neointima formation
COc1ccc(CNc2nc(N(CCO)CCO)nc3c2ncn3C(C)C)cc1 [CVT-313]	greater than 80%
